17 molecules from US20090111778A1, “2-Keto-Oxazoles as Modulators of Fatty Acid Amide Hydrolase” (priority 2005, published 2009) can be followed below.

Each structure is given as a SMILES string. Counter-ions that a name gives are not always drawn.

One assay deals with T1, rat FAAH (Rattus norvegicus, UniProt P97612).
T1 construct: expressed in transfected cells
T1 sequence (P97612 1-579): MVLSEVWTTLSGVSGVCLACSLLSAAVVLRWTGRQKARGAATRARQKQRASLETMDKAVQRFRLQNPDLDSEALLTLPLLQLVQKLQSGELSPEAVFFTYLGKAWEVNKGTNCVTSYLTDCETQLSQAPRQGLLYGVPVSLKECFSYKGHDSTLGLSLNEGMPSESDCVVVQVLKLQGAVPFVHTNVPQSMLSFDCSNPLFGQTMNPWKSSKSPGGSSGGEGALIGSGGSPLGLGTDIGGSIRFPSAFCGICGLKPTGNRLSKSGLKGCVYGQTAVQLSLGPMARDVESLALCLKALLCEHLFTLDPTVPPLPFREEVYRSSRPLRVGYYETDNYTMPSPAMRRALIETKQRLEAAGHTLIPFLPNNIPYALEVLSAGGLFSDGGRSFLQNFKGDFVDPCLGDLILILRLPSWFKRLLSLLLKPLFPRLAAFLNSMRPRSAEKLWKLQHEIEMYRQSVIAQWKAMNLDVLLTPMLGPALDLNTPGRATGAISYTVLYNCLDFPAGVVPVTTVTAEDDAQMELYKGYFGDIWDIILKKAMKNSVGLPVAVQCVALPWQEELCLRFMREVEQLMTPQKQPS
Nature of the assay: Assay Method 2: FAAH assay, hydrolysis of 3H-anandamide by homogenate of SK-N-MC cells transfected with rat FAAH. In kind it is biochemical. To be noted: T84 or transfected SK-N-MC cell homogenate, 3H-AEA tracer 80 nM, rt 1 h, pH 9. On the procedure:
A. Transfection of Cells with Rat FAAH A 10-cm tissue culture dish with a confluent monolayer of SK-N-MC cells was split 2 days (d) prior to transfection. Using sterile technique, the media was removed and the cells were detached from the dish by the addition of trypsin. One fifth of the cells were then placed onto a new 10-cm dish. Cells were grown in a 37° C. incubator with 5% CO2 in Minimal Essential Media Eagle with 10% Fetal Bovine Serum. After 2 d, cells were approximately 80% confluent. These cells were removed from the dish with trypsin and pelleted in a clinical centrifuge. The pellet was re-suspended in 400 μL complete media and transferred to an electroporation cuvette with a 0.4 cm gap between the electrodes. Supercoiled rat FAAH cDNA (1 μg) was added to the cells and mixed. The voltage for the electroporation was set at 0.25 kV, and the capacitance was set at 960 μF. After electroporation, the cells were diluted into complete media (10 mL) and plated onto four 10-cm dishes. Because of the variability in the efficiency of electroporation, four different concentrations of cells were plated. The ratios used were 1:20, 1:10, and 1:5, with the remainder of the cells being added to the fourth dish. The cells were allowed to recover for 24 h before adding the selection media (complete media with 600 μg/mL G418). After 10 d, dishes were analyzed for surviving colonies of cells. Dishes with well-isolated colonies were used. Cells from individual colonies were isolated and tested. […] B. FAAH Assay […] The reaction mixture was incubated at rt for 1 h. During the incubation, 96-well Multiscreen filter plates (catalog number MAFCNOB50; Millipore, Bedford, Mass., USA) were loaded with 25 μL of activated charcoal (Multiscreen column loader, catalog number MACL09625, Millipore) and washed once with 100 μL of MeOH. Also during the incubation, 96-well DYNEX MicroLite plates (catalog number NL510410) were loaded with 100 μL of MicroScint40 (catalog number 6013641, Packard Bioscience, Meriden, Conn., USA). After the 1 h incubation, 60 μL of the reaction mixture were transferred to the charcoal plates, which were then assembled on top of the DYNEX plates using Centrifuge Alignment Frames (catalog number MACF09604, Millipore). The unbound labeled ethanolamine was centrifuged through to the bottom plate (5 min at 2000 rpm), which was preloaded with the scintillant, as described above. The plates were sealed and left at rt for 1 h before counting on a Hewlett Packard TopCount.

A further assay addresses T2, human FAAH (Homo sapiens, UniProt O00519).
T2 construct: expressed in transfected cells
T2 sequence (O00519 1-579): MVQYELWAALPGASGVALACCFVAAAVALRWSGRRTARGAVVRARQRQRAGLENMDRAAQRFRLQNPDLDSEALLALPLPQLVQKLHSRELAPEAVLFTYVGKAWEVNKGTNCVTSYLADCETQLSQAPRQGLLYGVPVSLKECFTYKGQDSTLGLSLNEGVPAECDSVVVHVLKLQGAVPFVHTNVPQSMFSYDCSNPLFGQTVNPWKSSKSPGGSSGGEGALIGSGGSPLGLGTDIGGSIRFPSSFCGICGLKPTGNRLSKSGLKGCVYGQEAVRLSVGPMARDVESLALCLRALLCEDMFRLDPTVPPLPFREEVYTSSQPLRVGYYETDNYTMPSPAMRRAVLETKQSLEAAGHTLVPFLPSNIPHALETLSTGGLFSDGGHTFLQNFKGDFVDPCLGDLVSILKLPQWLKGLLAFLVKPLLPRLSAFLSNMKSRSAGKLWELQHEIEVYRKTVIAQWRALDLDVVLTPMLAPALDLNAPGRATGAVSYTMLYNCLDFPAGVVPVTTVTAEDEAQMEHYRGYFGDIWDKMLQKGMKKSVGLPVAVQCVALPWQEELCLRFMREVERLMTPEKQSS
Nature of the assay: Assay Method 1: FAAH assay, hydrolysis of 3H-anandamide by homogenate of SK-N-MC cells transfected with human FAAH. In kind it is biochemical. To be noted: human FAAH; T84 or transfected SK-N-MC cell homogenate; 3H-AEA tracer 80 nM; rt 1 h; pH 9; read-out: Assay 1 IC50. As for the experimental part: A. Transfection of Cells with Human FAAH
A 10-cm tissue culture dish with a confluent monolayer of SK-N-MC cells was split 2 days (d) prior to transfection. Using sterile technique, the media was removed and the cells were detached from the dish by the addition of trypsin. One fifth of the cells were then placed onto a new 10-cm dish. Cells were grown in a 37° C. incubator with 5% CO2 in Minimal Essential Media Eagle with 10% Fetal Bovine Serum. After 2 d, cells were approximately 80% confluent. These cells were removed from the dish with trypsin and pelleted in a clinical centrifuge. The pellet was re-suspended in 400 μL complete media and transferred to an electroporation cuvette with a 0.4 cm gap between the electrodes. Supercoiled human FAAH cDNA (1 μg) was added to the cells and mixed. The voltage for the electroporation was set at 0.25 kV, and the capacitance was set at 960 μF. After electroporation, the cells were diluted into complete media (10 mL) and plated onto four 10-cm dishes. Because of the variability in the efficiency of electroporation, four different concentrations of cells were plated. The ratios used were 1:20, 1:10, and 1:5, with the remainder of the cells being added to the fourth dish. The cells were allowed to recover for 24 h before adding the selection media (complete media with 600 μg/mL G418). After 10 d, dishes were analyzed for surviving colonies of cells. Dishes with well-isolated colonies were used. Cells from individual colonies were isolated and tested.
The assay mixture consisted of […] of the cell homogenate, 10 μL of the test compound, and 40 μL of anandamide [1-^3H-ethanolamine] (3H-AEA, Perkin-Elmer, 10.3 Ci/mmol), which was added last, for a final tracer concentration of 80 nM. The reaction mixture was incubated at rt for 1 h. During the incubation, 96-well Multiscreen filter plates (catalog number MAFCNOB50; Millipore, Bedford, Mass., USA) were loaded with 25 μL of activated charcoal (Multiscreen column loader, catalog number MACL09625, Millipore) and washed once with 100 μL of MeOH. Also during the incubation, 96-well DYNEX MicroLite plates (catalog number NL510410) were loaded with 100 μL of MicroScint40 (catalog number 6013641, Packard Bioscience, Meriden, Conn., USA). After the 1 h incubation, 60 μL of the reaction mixture were transferred to the charcoal plates, which were then assembled on top of the DYNEX plates using Centrifuge Alignment Frames (catalog number MACF09604, Millipore). The unbound labeled ethanolamine was centrifuged through to the bottom plate (5 min at 2000 rpm), which was preloaded with the scintillant, as described above. The plates were sealed and left at rt for 1 h before counting on a Hewlett Packard TopCount.

A word on the IC50: it is the concentration that gives 50% inhibition. As to `O=C(CCCC1CCN(C(=O)CCC2CCCC2)CC1)c1ncco1` [Example 32, 4-[1-(3-Cyclopentyl-propionyl)-piperidin-4-yl]-1-oxazol-2-yl-butan-1-one], the values for the concentration for half-maximal inhibition (IC50) against rat FAAH and on human FAAH were 112 nM and 28 nM, respectively.
With `CC(C)c1ccc(CN2CCC(CCCC(=O)c3ncc(-c4cccc(C(=O)O)n4)o3)CC2)cc1` [Example 148, 6-(2-{4-[1-(4-isopropyl-benzyl)-piperidin-4-yl]-butyryl}-oxazol-5-yl)-pyridine-2-carboxylic acid trifluoroacetic acid salt], the figures for the concentration for half-maximal inhibition (IC50) on rat FAAH and at human FAAH were 56 nM and 60 nM, respectively.
Take `O=C(CCCC1CCN(Cc2ccncc2)CC1)c1ncco1` [Example 6, 1-Oxazol-2-yl-4-(1-pyridin-4-ylmethyl-piperidin-4-yl)-butan-1-one]: the results for the IC50 against rat FAAH and at human FAAH were 550 nM and 359 nM, respectively.
Turning to `Cc1cccc(CN2CCC(CCCC(=O)c3ncco3)CC2)c1C` [Example 94, 4-[1-(2,3-Dimethyl-benzyl)-piperidin-4-yl]-1-oxazol-2-yl-butan-1-one], the half-maximal inhibitory concentration (IC50) at rat FAAH worked out at 2100 nM; on human FAAH it was 400 nM.
With `CC(C)COC(=O)N1CCC(CCCC(=O)c2ncco2)CC1` [Example 68, 4-(4-Oxazol-2-yl-4-oxo-butyl)-piperidine-1-carboxylic acid isobutyl ester], the values for the IC50 against rat FAAH and at human FAAH were 55 nM and 10 nM, respectively.
`CN(C)c1ccc(CN2CCC(CCCC(=O)c3ncco3)CC2)cc1` [Example 88, 4-[1-(4-Dimethylamino-benzyl)-piperidin-4-yl]-1-oxazol-2-yl-butan-1-one]: the figures for the IC50 against rat FAAH and at human FAAH were 3000 nM and 325 nM, respectively.
Turning to `Cc1ccc(S(=O)(=O)N2CCC(CCCC(=O)c3ncc(-c4cccc(C(=O)O)n4)o3)CC2)cc1` [Example 151, 6-(2-{4-[1-(Toluene-4-sulfonyl)-piperidin-4-yl]-butyryl}-oxazol-5-yl)-pyridine-2-carboxylic acid trifluoroacetic acid salt], the half-inhibitory concentration (IC50) against rat FAAH stood at 25 nM; on human FAAH it was 21 nM.
As to `O=C(CCCC1CCN(C(=O)CCC2CCCCC2)CC1)c1ncco1` [Example 50, 4-[1-(3-Cyclohexyl-propionyl)-piperidin-4-yl]-1-oxazol-2-yl-butan-1-one], the IC50 worked out at 10 nM at rat FAAH and 2 nM at human FAAH.
The corresponding values for `O=C(CCCC1CCN(Cc2cccc(F)c2F)CC1)c1ncco1` [Example 81, 4-[1-(2,3-Difluoro-benzyl)-piperidin-4-yl]-1-oxazol-2-yl-butan-1-one] are 1000 nM and 200 nM.
For `CC(C)OC(=O)N1CCC(CCCC(=O)c2ncco2)CC1` [Example 69, 4-(4-Oxazol-2-yl-4-oxo-butyl)-piperidine-1-carboxylic acid isopropyl ester], the IC50 against rat FAAH was 9 nM; on human FAAH it was 4 nM.
Take `Cc1ccc(S(=O)(=O)N2CCC(CCCC(=O)c3ncco3)CC2)cc1` [Example 52, 1-Oxazol-2-yl-4-[1-(toluene-4-sulfonyl)-piperidin-4-yl]-butan-1-one]: the IC50 against rat FAAH is 13 nM; on human FAAH, 1040 nM.
The corresponding values for `O=C(CCCC1CCN(Cc2ccc(-c3ccsc3)nc2)CC1)c1ncco1` [Example 111, 1-Oxazol-2-yl-4-[1-(6-thiophen-3-yl-pyridin-3-ylmethyl)-piperidin-4-yl]-butan-1-one] are 193 nM and 15 nM.
The corresponding values for `Cc1ccc(CN2CCC(CCCC(=O)c3ncco3)CC2)cc1` [Example 18, 4-[1-(4-Methyl-benzyl)-piperidin-4-yl]-1-oxazol-2-yl-butan-1-one] are 1000 nM and 400 nM.
In the case of `O=C(CCCC1CCN(Cc2cccc(OC3CCCCC3)c2)CC1)c1ncco1` [Example 136, 4-[1-(3-Cyclohexyloxy-benzyl)-piperidin-4-yl]-1-oxazol-2-yl-butan-1-one], the figures for the IC50 against rat FAAH and at human FAAH were 2 nM and 1 nM, respectively.
Consider `CC(C)(C)OC(=O)N1CCC(CCCC(=O)c2ncc(-c3ccccn3)o2)CC1` [Example 119, 4-[4-Oxo-4-(5-pyridin-2-yl-oxazol-2-yl)-butyl]-piperidine-1-carboxylic acid tert-butyl ester], for which the results for the concentration for half-maximal inhibition (IC50) on rat FAAH and at human FAAH were 3 nM and 0.8 nM, respectively.
Turning to `COc1ccc(S(=O)(=O)N2CCC(CCCC(=O)c3ncco3)CC2)cc1` [Example 61, 4-[1-(4-Methoxy-benzenesulfonyl)-piperidin-4-yl]-1-oxazol-2-yl-butan-1-one], the half-maximal inhibitory concentration (IC50) at rat FAAH turned out to be 37 nM; at human FAAH, 2 nM.
`Cc1cccc(CC(=O)N2CCC(CCCC(=O)c3ncco3)CC2)c1` [Example 39, 1-Oxazol-2-yl-4-[1-(2-m-tolyl-acetyl)-piperidin-4-yl]-butan-1-one]: the half-inhibitory concentration (IC50) against rat FAAH was determined as 463 nM; on human FAAH it was 834 nM.
